Laboratory results: ChEMBL document CHEMBL5357015, “Synthesis, Antiacetylcholinesterase Activity, and Molecular Dynamics Simulation of Aporphine-benzylpyridinium Conjugates” (ACS Med Chem Lett, 2024)
pIC50, pKi: −log10 of the molar value. Counter-ions that a name gives are not always drawn.

Experiments:
[1] = Selectivity index, ratio of IC50 for horse serum BuChE using butyrylthiocholine iodide as substrate to IC50 for electric eel AChE using acetylthiocholine iodide as substrate
Acetylcholinesterase [2] = molecular target: T1, Acetylcholinesterase (Electrophorus electricus, UniProt O42275); assay: Inhibition of electric eel AChE using acetylthiocholine iodide as substrate preincubated for 20 mins followed by substrate addition and measured every 20 secs for 3 mins by Ellman's method
Cholinesterase = Cholinesterase (Equus caballus, UniProt P81908); assay: Inhibition of horse serum BuChE using butyrylthiocholine iodide as substrate preincubated for 20 mins followed by substrate addition and measured every 20 secs for 3 mins by Ellman's method
Acetylcholinesterase [3] = molecular target: T1, Acetylcholinesterase; assay: Binding affinity to electric eel AChE assessed as inhibition constant by Lineweaver-Burk plot analysis
[4] = Lipophilicity, log P of the compound in n-octanol/water by HPLC method; format: physicochemical
MRC5 = assay: Cytotoxicity against human MRC5 cells assessed as reduction in cell viability at 50 ug/ml relative to control; format: toxicity, cell-based; conditions: at 50 µg/mL
[5] = molecular target: Acetylcholinesterase (Electrophorus electricus) (UniProt O42275); assay: Inhibition of electric eel AChE using acetylthiocholine iodide as substrate at 10 uM preincubated for 20 mins followed by substrate addition and measured every 20 secs for 3 mins by Ellman's method relative to control; conditions: time 23.0 min
[6] = Cytotoxicity against human MRC5 cells assessed as reduction in cell viability; format: toxicity, cell-based

Acetylcholinesterase (Electrophorus electricus), sequence (O42275 24-633 limits assumed): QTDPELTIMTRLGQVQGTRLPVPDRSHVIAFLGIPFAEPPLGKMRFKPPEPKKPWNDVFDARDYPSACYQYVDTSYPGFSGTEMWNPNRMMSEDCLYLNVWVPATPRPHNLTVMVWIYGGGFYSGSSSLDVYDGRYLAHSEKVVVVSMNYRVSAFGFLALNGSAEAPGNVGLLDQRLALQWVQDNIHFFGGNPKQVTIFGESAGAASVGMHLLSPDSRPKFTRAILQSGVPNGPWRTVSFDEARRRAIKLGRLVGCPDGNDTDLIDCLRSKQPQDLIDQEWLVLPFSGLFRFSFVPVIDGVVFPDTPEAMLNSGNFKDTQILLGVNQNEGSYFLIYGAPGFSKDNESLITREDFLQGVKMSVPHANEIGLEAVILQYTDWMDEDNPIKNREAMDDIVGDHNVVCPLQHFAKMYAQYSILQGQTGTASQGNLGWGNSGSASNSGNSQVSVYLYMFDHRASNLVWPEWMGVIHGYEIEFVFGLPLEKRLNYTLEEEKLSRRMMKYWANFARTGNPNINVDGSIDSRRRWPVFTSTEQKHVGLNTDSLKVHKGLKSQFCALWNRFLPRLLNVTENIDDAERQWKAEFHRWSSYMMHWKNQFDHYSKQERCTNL
T1 sequence (O42275 whole entry): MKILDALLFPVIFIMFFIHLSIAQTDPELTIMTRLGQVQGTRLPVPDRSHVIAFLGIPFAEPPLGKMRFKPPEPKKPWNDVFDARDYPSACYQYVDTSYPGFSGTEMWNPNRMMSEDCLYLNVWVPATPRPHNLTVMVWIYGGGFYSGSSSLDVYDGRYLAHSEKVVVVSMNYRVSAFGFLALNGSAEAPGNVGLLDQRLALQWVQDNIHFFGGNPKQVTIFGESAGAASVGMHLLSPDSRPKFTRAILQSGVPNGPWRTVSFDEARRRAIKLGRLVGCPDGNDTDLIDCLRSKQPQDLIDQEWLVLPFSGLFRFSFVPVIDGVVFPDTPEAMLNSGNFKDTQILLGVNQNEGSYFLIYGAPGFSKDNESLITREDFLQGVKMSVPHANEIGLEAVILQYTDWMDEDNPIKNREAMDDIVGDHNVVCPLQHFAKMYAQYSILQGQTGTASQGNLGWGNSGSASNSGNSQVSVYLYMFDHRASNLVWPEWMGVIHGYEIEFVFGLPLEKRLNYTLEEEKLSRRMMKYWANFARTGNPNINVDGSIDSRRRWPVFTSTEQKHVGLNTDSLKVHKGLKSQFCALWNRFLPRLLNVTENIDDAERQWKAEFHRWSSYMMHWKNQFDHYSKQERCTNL
Cholinesterase, sequence (P81908 whole entry): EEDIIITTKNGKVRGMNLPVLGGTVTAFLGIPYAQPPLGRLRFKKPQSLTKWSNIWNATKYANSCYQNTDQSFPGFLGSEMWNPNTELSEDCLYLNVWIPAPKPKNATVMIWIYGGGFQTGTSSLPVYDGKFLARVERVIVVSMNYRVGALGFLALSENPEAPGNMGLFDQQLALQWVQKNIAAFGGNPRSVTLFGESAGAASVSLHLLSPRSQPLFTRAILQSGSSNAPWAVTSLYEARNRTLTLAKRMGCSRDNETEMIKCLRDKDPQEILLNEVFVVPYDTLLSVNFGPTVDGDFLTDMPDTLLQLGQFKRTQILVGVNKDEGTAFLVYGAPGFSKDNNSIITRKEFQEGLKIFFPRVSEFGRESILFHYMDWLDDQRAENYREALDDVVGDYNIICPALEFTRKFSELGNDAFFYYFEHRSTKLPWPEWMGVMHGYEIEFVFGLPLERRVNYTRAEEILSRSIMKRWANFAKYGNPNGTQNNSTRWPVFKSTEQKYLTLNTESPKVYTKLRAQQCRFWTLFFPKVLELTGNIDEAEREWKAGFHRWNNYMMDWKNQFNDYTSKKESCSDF

Compound `COc1cc2c3c(cc4ccccc4c3c1OC)N(C(=O)c1cc[n+](Cc3ccccc3Cl)cc1)CC2` has a Ratio IC50 [1] of 0.3, a pIC50 (Acetylcholinesterase [2]) of 5.79 and a pIC50 (Cholinesterase) of 6.36.

`COc1cc2c3c(c1OC)-c1ccccc1C[C@H]3N(C(=O)c1cc[n+](Cc3ccc(F)cc3)cc1)CC2` gave a Ratio IC50 [1] of 1.3, a pIC50 (Acetylcholinesterase [2]) of 4.92 and a pIC50 (Cholinesterase) of 4.81. It also gave a pKi (Acetylcholinesterase [3]) of 5.16 and a logP [4] of 2.3.

Work on `COc1cc2c3c(c1OC)-c1ccccc1CC3N(C(=O)c1cc[n+](Cc3ccc(F)cc3)cc1)CC2.[Br-]` (racemic) yielded a Ratio IC50 [1] of 7, an Activity (MRC5) of 2.46% and a pIC50 (Acetylcholinesterase [2]) of 6.18. The pIC50 (Cholinesterase) was 5.33 and the logP [4] was 2.3.

Work on `COc1cc2c3c(c1OC)-c1ccccc1CC3N(C(=O)c1cc[n+](Cc3cccc(F)c3F)cc1)CC2` (racemic) yielded a Ratio IC50 [1] of 2, a pIC50 (Acetylcholinesterase [2]) of 6.12 and a pIC50 (Cholinesterase) of 5.81.

`COc1cc2c3c(c1OC)-c1ccccc1CC3N(C(=O)c1cc[n+](Cc3cccc(Cl)c3)cc1)CC2` (racemic) gave a Ratio IC50 [1] of 0.5, a pIC50 (Acetylcholinesterase [2]) of 5.67 and a pIC50 (Cholinesterase) of 6.02. The logP [4] was 2.62.

`COc1cc2c3c(cc4ccccc4c3c1OC)N(C(=O)c1ccncc1)CC2` gave an inhibition [5] of 16%.

`COc1cc2c3c(c1OC)-c1ccccc1C[C@@H]3N(C(=O)c1cc[n+](Cc3ccccc3Cl)cc1)CC2.[Br-]` showed a Ratio IC50 [1] of 30.3, an Activity (MRC5) of 5.03% and a pIC50 (Acetylcholinesterase [2]) of 7.22. It also gave a pIC50 (Cholinesterase) of 5.74, a pKi (Acetylcholinesterase [3]) of 6.66 and a logP [4] of 2.36.

Work on `COc1cccc2c1C(=O)c1c(O)c3c(c(O)c1C2=O)C[C@@](O)(C(=O)CO)C[C@@H]3O[C@H]1C[C@H](N)[C@H](O)[C@H](C)O1` [DOXORUBICIN HYDROCHLORIDE] yielded an IC50 [6] of 1.54 µg/mL.

For `COc1cc2c3c(c1OC)-c1ccccc1CC3N(C(=O)c1cc[n+](Cc3c(F)cccc3F)cc1)CC2` (racemic), the Ratio IC50 [1] was 1.2, the pIC50 (Acetylcholinesterase [2]) was 6.10 and the pIC50 (Cholinesterase) was 6.01. For the same compound, the logP [4] was 2.08.

`COc1cc2c3c(c1OC)-c1ccccc1CC3N(C(=O)c1cc[n+](Cc3cccc(F)c3)cc1)CC2` (racemic) showed a Ratio IC50 [1] of 3, a pIC50 (Acetylcholinesterase [2]) of 6.35 and a pIC50 (Cholinesterase) of 5.87.

In the case of `COc1cc2c3c(c1OC)-c1ccccc1C[C@@H]3N(C(=O)c1cc[n+](Cc3ccccc3)cc1)CC2`, the Ratio IC50 [1] was 40.8, the pIC50 (Acetylcholinesterase [2]) was 6.92 and the pIC50 (Cholinesterase) was 5.31. It also gave a pKi (Acetylcholinesterase [3]) of 6.77 and a logP [4] of 2.2.

With `COc1cc2c3c(c1OC)-c1ccccc1CC3N(C(=O)c1cc[n+](Cc3ccccc3)cc1)CC2.[Br-]` (racemic) the Ratio IC50 [1] was 3.8, the Activity (MRC5) was 3.62% and the pIC50 (Acetylcholinesterase [2]) was 6.46. For the same compound, the pIC50 (Cholinesterase) was 5.88 and the logP [4] was 2.2.

Work on `COc1cc2c3c(cc4ccccc4c3c1OC)N(C(=O)c1cc[n+](Cc3ccccc3)cc1)CC2` yielded an inhibition [5] of 69%.

`COc1cc2c3c(c1OC)-c1ccccc1CC3N(C(=O)c1cc[n+](Cc3ccc(Cl)cc3)cc1)CC2` (racemic) showed an inhibition [5] of 31% and a logP [4] of 2.67.

`COc1cc2c3c(c1OC)-c1ccccc1C[C@H]3N(C(=O)c1cc[n+](Cc3ccccc3)cc1)CC2` gave a Ratio IC50 [1] of 0.7, a pIC50 (Acetylcholinesterase [2]) of 5.15 and a pIC50 (Cholinesterase) of 5.31. The pKi (Acetylcholinesterase [3]) was 5.59 and the logP [4] was 2.2.

With `COc1cc2c3c(c1OC)-c1ccccc1C[C@H]3N(C(=O)c1cc[n+](Cc3ccccc3Cl)cc1)CC2.[Br-]` the Ratio IC50 [1] was 0.8, the Activity (MRC5) was 5.3% and the pIC50 (Acetylcholinesterase [2]) was 5.53. For the same compound, the pIC50 (Cholinesterase) was 5.60, the pKi (Acetylcholinesterase [3]) was 5.78 and the logP [4] was 2.36.

`COc1cc2c3c(c1OC)-c1ccccc1CC3N(C(=O)c1cc[n+](Cc3ccccc3F)cc1)CC2` (racemic) showed a Ratio IC50 [1] of 3.3, a pIC50 (Acetylcholinesterase [2]) of 6.39 and a pIC50 (Cholinesterase) of 5.86.

Compound `COc1cc2c3c(c1OC)-c1ccccc1CC3N(C(=O)c1ccncc1)CC2` (racemic) has an inhibition [5] of 5%.

For `COc1cc2c3c(c1OC)-c1ccccc1C[C@@H]3N(C(=O)c1cc[n+](Cc3ccc(F)cc3)cc1)CC2`, the Ratio IC50 [1] was 23.2, the pIC50 (Acetylcholinesterase [2]) was 6.43 and the pIC50 (Cholinesterase) was 5.07. It also gave a pKi (Acetylcholinesterase [3]) of 6.57 and a logP [4] of 2.3.

Compound `COc1cc2c3c(cc4ccccc4c3c1OC)NCC2` has an inhibition [5] of 12%.

For `COc1cc2c3c(cc4ccccc4c3c1OC)N(C(=O)c1cc[n+](Cc3ccccc3F)cc1)CC2`, the Ratio IC50 [1] was 0.1, the pIC50 (Acetylcholinesterase [2]) was 5.56 and the pIC50 (Cholinesterase) was 6.55.

`COc1cc2c3c(c1OC)-c1ccccc1CC3N(C(=O)c1cc[n+](Cc3ccccc3Cl)cc1)CC2.[Br-]` (racemic) showed a Ratio IC50 [1] of 3.9, an Activity (MRC5) of 2.96% and a pIC50 (Acetylcholinesterase [2]) of 6.74. The pIC50 (Cholinesterase) was 6.15 and the logP [4] was 2.36.
